The target of one assay is human TRPV1 (Homo sapiens, UniProt Q8NER1). The assay is described as follows: FLIPR Ca2+ assay, reduction of L-Menthol activation of TRPV1. As to conditions: for inhibition at 100 µM: read-out: % Reduction of L-Menthol TRPV1 Activation.
A further assay addresses human TRPA1 (Homo sapiens, UniProt O75762). The assay is described as follows: FLIPR Ca2+ assay, reduction of L-Menthol activation of TRPA1.
The mark [1] stands for this setting: antagonist 100 μM against 1 mM L-Menthol.
Where [2] appears, read: 100 μM antagonist vs 1 mM L-Menthol.

Structures can show the parent of a compound that is named as a salt. Where two headings read alike, the source gives them in different places.

Chain of human TRPV1 (Q8NER1 whole entry): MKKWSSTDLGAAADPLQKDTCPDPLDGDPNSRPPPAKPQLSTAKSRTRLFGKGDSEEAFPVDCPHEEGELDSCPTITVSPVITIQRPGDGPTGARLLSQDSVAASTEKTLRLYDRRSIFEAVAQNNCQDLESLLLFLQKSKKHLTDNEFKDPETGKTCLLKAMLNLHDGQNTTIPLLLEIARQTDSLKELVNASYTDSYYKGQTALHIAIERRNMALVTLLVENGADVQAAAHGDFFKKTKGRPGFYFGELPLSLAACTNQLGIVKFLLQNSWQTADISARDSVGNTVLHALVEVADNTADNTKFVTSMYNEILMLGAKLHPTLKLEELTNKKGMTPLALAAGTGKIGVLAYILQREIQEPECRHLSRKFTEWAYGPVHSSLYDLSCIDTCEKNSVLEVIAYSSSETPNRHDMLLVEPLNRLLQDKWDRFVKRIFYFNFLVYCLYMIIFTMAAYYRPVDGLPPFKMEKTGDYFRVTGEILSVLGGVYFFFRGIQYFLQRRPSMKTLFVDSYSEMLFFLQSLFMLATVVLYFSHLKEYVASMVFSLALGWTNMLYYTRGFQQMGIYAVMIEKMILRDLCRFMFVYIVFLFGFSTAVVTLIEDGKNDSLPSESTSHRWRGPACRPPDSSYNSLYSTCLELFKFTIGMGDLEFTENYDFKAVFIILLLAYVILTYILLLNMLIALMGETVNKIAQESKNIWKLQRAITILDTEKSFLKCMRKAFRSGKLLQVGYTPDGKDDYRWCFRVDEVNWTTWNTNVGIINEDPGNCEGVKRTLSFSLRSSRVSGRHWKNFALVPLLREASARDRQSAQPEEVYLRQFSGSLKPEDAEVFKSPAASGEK
Chain of human TRPA1 (O75762 whole entry): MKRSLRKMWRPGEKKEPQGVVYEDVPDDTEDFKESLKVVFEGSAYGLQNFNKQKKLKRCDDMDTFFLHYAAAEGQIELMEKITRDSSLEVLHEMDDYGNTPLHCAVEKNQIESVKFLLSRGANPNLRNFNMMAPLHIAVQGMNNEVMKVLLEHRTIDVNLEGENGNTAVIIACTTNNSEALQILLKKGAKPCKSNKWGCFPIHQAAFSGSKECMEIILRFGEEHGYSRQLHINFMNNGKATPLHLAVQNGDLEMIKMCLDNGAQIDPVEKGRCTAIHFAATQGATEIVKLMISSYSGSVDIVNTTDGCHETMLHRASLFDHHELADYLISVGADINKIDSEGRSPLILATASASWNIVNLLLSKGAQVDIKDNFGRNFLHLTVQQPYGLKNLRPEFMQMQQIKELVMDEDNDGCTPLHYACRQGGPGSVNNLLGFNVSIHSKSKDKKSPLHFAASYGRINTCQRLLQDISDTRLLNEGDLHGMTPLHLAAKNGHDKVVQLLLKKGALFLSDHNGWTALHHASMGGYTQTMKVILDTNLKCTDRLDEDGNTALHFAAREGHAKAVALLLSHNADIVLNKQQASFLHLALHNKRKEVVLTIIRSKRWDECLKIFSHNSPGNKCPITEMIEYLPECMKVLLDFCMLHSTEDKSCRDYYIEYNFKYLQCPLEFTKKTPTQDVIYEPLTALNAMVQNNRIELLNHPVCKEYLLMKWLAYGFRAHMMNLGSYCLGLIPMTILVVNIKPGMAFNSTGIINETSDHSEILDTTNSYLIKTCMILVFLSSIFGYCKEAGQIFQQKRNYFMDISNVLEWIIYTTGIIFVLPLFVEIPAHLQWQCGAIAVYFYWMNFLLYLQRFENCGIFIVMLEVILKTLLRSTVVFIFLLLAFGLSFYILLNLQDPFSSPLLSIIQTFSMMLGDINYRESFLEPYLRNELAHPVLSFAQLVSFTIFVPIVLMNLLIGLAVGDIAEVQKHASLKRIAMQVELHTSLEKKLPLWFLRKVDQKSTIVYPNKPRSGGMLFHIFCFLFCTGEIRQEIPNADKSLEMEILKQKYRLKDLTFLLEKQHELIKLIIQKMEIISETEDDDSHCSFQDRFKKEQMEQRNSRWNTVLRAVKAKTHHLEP
Experimental for human TRPA1: In order to determine whether TRPA1 is activated, the intracellular calcium ion (Ca^2+) level from transfected cells with the TRPA1 receptor gene was measured. HEK-2 cells stably transfected with human TRPA1 were grown in 15 ml growth medium [high glucose DMEM (Dulbecco's Modification of Eagle's Medium) supplemented with 10% FBS (fetal bovine serum), 100 μg/ml Penicillin/streptomycin, 100 μg/ml G418] in a 75 Cm^2 flask for 3 days at 37° C. in a mammalian cell culture incubator set at 5% CO2. Cells were detached with addition of 10 ml of PBS (phosphate buffered saline) by hand shaking gently and transferred to a 50 ml tube and centrifuged at 850 rpm for 3 minutes to remove PBS. After centrifugation, a pellet of cells was formed in the bottom of the tube separating them from the supernatant solution. […] Fluo-4 is a fluorescent dye used for quantifying cellular Ca^2+ concentrations in the 100 nM to 1 μM range.
The pelleted cells were re-suspended in 10 ml assay buffer and 90 μl aliquots (˜50,000 cells) per well delivered to a 96-well assay plate containing 10 μl of test compounds (1 mM in assay buffer, final concentration 100 μM) or buffer control and incubated at room temperature for 30 minutes. After 30 minutes, the plate was placed into a fluorometric imaging plate reader (FLIPR384 from Molecular Devices) and basal fluorescence recorded (excitation wave length 488 nm and emission wave length 510 nm). Then 20 μl of the molecule being tested as a TRPA1 antagonist was added and fluorescence recorded. For determining the direct effect of test compounds on TRPA1, fluorescence was measured immediately after addition of each compound.
To determine if a compound was an antagonist or a desensitizer the direct effect of a test compound was determined. For determining the direct effect of test compounds on TRPA1 receptor activation, 100 μl aliquots (˜50,000 cells) of cells prepared as described above were delivered to a 96-well assay plate and basal fluorescence recorded as noted above. Then 20 μl of the compound being tested as a TRPA1 activator was added and fluorescence recorded. If any increase in fluorescence over background was noted, then the compound was considered an agonist.

In the case of `CSC(C)C(C)=O` (stereo not drawn) [3-methylthio-2-butanone], the “Average Ca2+ Counts” value on human TRPV1 (setting [1]) is on record as 1554.0 Counts. Moreover, the inhibition at 100 µM on human TRPV1 was 20%. In addition, the “Block of L-Menthol activation of TRPA1” value at human TRPA1 (setting [2]) is reported as “BLOCK ONLY MENTHOL/TRPA1”.
For `O=C(C=Cc1ccccc1)OCC=Cc1ccccc1` [3-phenyl-2-propen-1-yl 3-phenylacrylate], in that order: 3377.0 Counts, 47.2% and “BLOCK ONLY MENTHOL/TRPA1”.
Take `COc1ccc(COC=O)cc1` [4-methoxybenzyl formate]: the “Average Ca2+ Counts” value on human TRPV1 (setting [1]) is given as 1399.0 Counts. On human TRPV1, the inhibition at 100 µM worked out at 27.2%. The “Block of L-Menthol activation of TRPA1” value on human TRPA1 (setting [2]) is “BLOCK ONLY MENTHOL/TRPA1”.
For `CC(C)CC(=O)Cc1ccccc1` [4-methyl-1-phenyl-2-pentanone], in that order: 2707.0 Counts, 32.9% and “BLOCK ONLY MENTHOL/TRPA1”.
For `COc1cc(C)cc(OC)c1O` [4-methyl-2,6-dimethoxyphenol] the same measures were 1292.3 Counts, 32.1% and “BLOCK ONLY MENTHOL/TRPA1”.
With `C=Cc1scnc1C` [4-methyl-5-vinylthiazole], the “Average Ca2+ Counts” value on human TRPV1 (setting [1]) is given as 1227.7 Counts. The inhibition at 100 µM on human TRPV1 came to 35.1%. For the same compound, the “Block of L-Menthol activation of TRPA1” value on human TRPA1 (setting [2]) is reported as “BLOCK ONLY MENTHOL/TRPA1”.
For `CC(=O)C(=O)CC(C)C` [5-methyl-2,3-hexanedione], in that order: 2968.5 Counts, 26.4% and “BLOCK ONLY MENTHOL/TRPA1”.
With `CC1(C)C2CC[C@@]1(C)C(=O)C2` [(1r)-(+)-camphor], the “Average Ca2+ Counts” value on human TRPV1 (setting [1]) was 2807.0 Counts. Besides, the inhibition at 100 µM at human TRPV1 is 30.5%. Further, the “Block of L-Menthol activation of TRPA1” value on human TRPA1 (setting [2]) is recorded as “BLOCK ONLY MENTHOL/TRPA1”.
For `C=CCOC(=O)CCCCCCC` [allyl caprylate], in that order: 2572.0 Counts, 44.6% and “BLOCK ONLY MENTHOL/TRPA1”.
For `O=COCc1ccccc1` [benzyl formate], in that order: 2923.5 Counts, 27.6% and “BLOCK ONLY MENTHOL/TRPA1”.
For the compound `C=C1CC/C=C(\C)CC[C@@H]2[C@@H]1CC2(C)C` [beta-caryophyllene], on human TRPV1 (setting [1]), the “% Reduction of L-Menthol TRPV1 Activation” value (shortened to “% Reduction”) was 32.0% and the “Average Ca2+ Counts” value is on record as 2744.5 Counts. Besides, at human TRPA1 (setting [2]), the “Block of L-Menthol activation of TRPA1” value was “BLOCK ONLY MENTHOL/TRPA1”.
Turning to `O=C(O)c1ccc(O)cc1O` [beta-resorcylic acid], the “Average Ca2+ Counts” value on human TRPV1 (setting [1]) worked out at 1317.3 Counts. Besides, at human TRPV1, the inhibition at 100 µM amounted to 31%. In addition, the “Block of L-Menthol activation of TRPA1” value at human TRPA1 (setting [2]) was “BLOCK ONLY MENTHOL/TRPA1”.
For the compound `C[N+](C)(C)CCO.O=C([O-])C(O)C(O)C(=O)O` (stereo not drawn) [choline bitartrate], on human TRPV1, the “% Reduction” value is listed as 39.1% and the “Average Ca2+ Counts” value is 1141.3 Counts. Further, the “Block of L-Menthol activation of TRPA1” value on human TRPA1 is “BLOCK ONLY MENTHOL/TRPA1”.
Regarding `CC/C=C\CCOC(=O)CCC` [cis-3-hexenyl butyrate], the “Average Ca2+ Counts” value at human TRPV1 (setting [1]) was 2987.5 Counts. In addition, the inhibition at 100 µM at human TRPV1 is 26%. Further, the “Block of L-Menthol activation of TRPA1” value on human TRPA1 (setting [2]) is given as “BLOCK ONLY MENTHOL/TRPA1”.
Consider `CCCC/C=C\CCO` [cis-3-octen-1-ol], for which the “Average Ca2+ Counts” value on human TRPV1 (setting [1]) came to 1424.7 Counts. Moreover, the inhibition at 100 µM at human TRPV1 worked out at 26%. The “Block of L-Menthol activation of TRPA1” value on human TRPA1 (setting [2]) is listed as “BLOCK ONLY MENTHOL/TRPA1”.
For `CC(C)=CCCC(C)CCOC=O` (stereo not drawn) [citronellyl formate], in that order: 1097.0 Counts, 41.2% and “BLOCK ONLY MENTHOL/TRPA1”.
For `C=CCSCC=C` [diallyl sulfide] the same measures were 1293.3 Counts, 32.1% and “BLOCK ONLY MENTHOL/TRPA1”.
Take `CCCCOC(=O)CCCCCCCCC(=O)OCCCC` [dibutyl sebacate]: on human TRPV1 (setting [1]), the “Average Ca2+ Counts” value was 1398.0 Counts. Also, the inhibition at 100 µM on human TRPV1 was found to be 27.3%. Moreover, on human TRPA1 (setting [2]), the “Block of L-Menthol activation of TRPA1” value is listed as “BLOCK ONLY MENTHOL/TRPA1”.
`O=C(O)CN(CCN(CC(=O)O)CC(=O)O)CC(=O)O` [edta]: on human TRPV1, the “% Reduction” value worked out at 34.8% and the “Average Ca2+ Counts” value is 1236.0 Counts. For the same compound, on human TRPA1, the “Block of L-Menthol activation of TRPA1” value is listed as “BLOCK ONLY MENTHOL/TRPA1”.
As to `CCOC(=O)C(=O)CC(=O)CC` [ethyl 2,4-dioxohexanoate], on human TRPV1 (setting [1]), the “Average Ca2+ Counts” value stood at 1000.3 Counts. Besides, the inhibition at 100 µM at human TRPV1 was determined as 45.7%. The “Block of L-Menthol activation of TRPA1” value at human TRPA1 (setting [2]) was “BLOCK ONLY MENTHOL/TRPA1”.
For `CCOC(=O)C(Cc1ccccc1)C(C)=O` (stereo not drawn) [ethyl 2-benzylacetoacetate], in that order: 1548.3 Counts, 20.3% and “BLOCK ONLY MENTHOL/TRPA1”.
For `CCOC(=O)CCc1ccco1` [ethyl 3-(2-furyl)propionate] the same measures were 4446.5 Counts, 30.5% and “BLOCK ONLY MENTHOL/TRPA1”.
With `CCOC(=O)C1OC1c1ccccc1` (stereo not drawn) [ethyl 3-phenylglycidate], at human TRPV1 (setting [1]), the “% Reduction” value worked out at 50.8% and the “Average Ca2+ Counts” value was determined as 1987.0 Counts. Also, the “Block of L-Menthol activation of TRPA1” value on human TRPA1 (setting [2]) is given as “BLOCK ONLY MENTHOL/TRPA1”.
Consider `C=CCCCC(=O)OCC` [ethyl 5-hexenoate], for which, on human TRPV1 (setting [1]), the “Average Ca2+ Counts” value amounted to 1084.0 Counts. The inhibition at 100 µM on human TRPV1 is 41.8%. Also, the “Block of L-Menthol activation of TRPA1” value on human TRPA1 (setting [2]) was “BLOCK ONLY MENTHOL/TRPA1”.
On to `CCCCCC(=O)OCC` [ethyl hexanoate], for which the “Average Ca2+ Counts” value on human TRPV1 (setting [1]) is listed as 3655.5 Counts. Also, on human TRPV1, the inhibition at 100 µM stood at 42.9%. Moreover, at human TRPA1 (setting [2]), the “Block of L-Menthol activation of TRPA1” value is recorded as “BLOCK ONLY MENTHOL/TRPA1”.
Turning to `CCCCCCCC/C=C\CCCCCCCC(=O)OCC` [ethyl oleate], the “Average Ca2+ Counts” value on human TRPV1 (setting [1]) stood at 1431.3 Counts. Besides, the inhibition at 100 µM at human TRPV1 is 25.7%. Further, on human TRPA1 (setting [2]), the “Block of L-Menthol activation of TRPA1” value is reported as “BLOCK ONLY MENTHOL/TRPA1”.
For `CCOC(=O)CC` [ethyl propionate] the same measures were 2712.0 Counts, 32.8% and “BLOCK ONLY MENTHOL/TRPA1”.
Turning to `CCC/C=C/C(=O)OCC` [ethyl trans-2-hexenoate], the “Average Ca2+ Counts” value at human TRPV1 (setting [1]) is given as 1102.7 Counts. In addition, the inhibition at 100 µM at human TRPV1 stood at 40.9%. Besides, the “Block of L-Menthol activation of TRPA1” value on human TRPA1 (setting [2]) is on record as “BLOCK ONLY MENTHOL/TRPA1”.
For `CCCCC/C=C/CCC(=O)OCC` [ethyl trans-4-decenoate] the same measures were 1454.3 Counts, 24.6% and “BLOCK ONLY MENTHOL/TRPA1”.
For the compound `COc1cc(/C=C/C(=O)O)ccc1O` [ferulic acid], on human TRPV1 (setting [1]), the “Average Ca2+ Counts” value is reported as 1242.0 Counts. In addition, at human TRPV1, the inhibition at 100 µM is 34.5%. The “Block of L-Menthol activation of TRPA1” value at human TRPA1 (setting [2]) is recorded as “BLOCK ONLY MENTHOL/TRPA1”.
For `CCCCCCCCCCCCCCCCOC(=O)C(C)O` (stereo not drawn) [hexadecyl lactate] the same measures were 1047.0 Counts, 43.5% and “BLOCK ONLY MENTHOL/TRPA1”.

The values above are taken from patent US20130315843A1, “COMPOSITION FOR REDUCTION OF TRPA1 AND TRPV1 SENSATIONS” (priority 2012, published 2013).
